According to paper PMC10539329, “NLRP6 potentiates PI3K/AKT signalling by promoting autophagic degradation of p85α to drive tumorigenesis” (Nature Communications, 2023):

Legend:
HS683 cells = experiment: Cell proliferation / viability assay, HS683; format: cell-based, Human; details: Supplementary Figure 8f
Procedure: (§1) Cells were seeded into 12-well plates at a density of 1 × 10^4 cells per well. Manual cell counting was carried out at the indicated times using trypan blue and a haemocytometer.
(§2) To determine the antitumour effect of the peptide in vitro, the peptide was incubated with cells for 24 h when the cells were grown to approximately 80% confluence. Cell viability was measured at the indicated time points. The cell lysates were collected for immunoprecipitation as described above. To determine the antitumour effect of the peptide in vivo, the peptide was stereotactically injected using identical coordinates of tumour implantation in 3 μl of PBS. Briefly, 3 weeks after intracranial tumour cell implantation, mice with similar tumour sizes and similar weights were selected and randomly arranged into five groups (n = 6): PBS, PepC (0.25 mg/kg TAT-PepC per injection), Pep9 low dose (Pep9 L, 0.05 mg/kg TAT-Pep9 per injection), Pep9 medium dose (Pep9 M, 0.1 mg/kg TAT-Pep9 per injection), and Pep9 high dose (Pep9 H, 0.25 mg/kg TAT-Pep9 per injection). Each mouse received intratumoural injection every 10 days (at Day 21, Day 31, Day 41, and Day 51), and tumour growth was monitored at Day 21, Day 41, and Day 56. The experiment was terminated at Day 80, and all the mice (if they were alive) were sacrificed as previously described.

recombinant NLRP6 = target: T1, recombinant NLRP6 (Homo sapiens, UniProt P59044); experiment: Biolayer interferometry (BLI) binding of peptides to recombinant NLRP6; details: 30 °C, PBS with 0.01% Tween-20
T1 construct: DNA encoding full-length NLRP6 was codon optimized; His (N); MBP (N); made in house; host or cells: E. coli (DE3)
T1 sequence (P59044 1-892): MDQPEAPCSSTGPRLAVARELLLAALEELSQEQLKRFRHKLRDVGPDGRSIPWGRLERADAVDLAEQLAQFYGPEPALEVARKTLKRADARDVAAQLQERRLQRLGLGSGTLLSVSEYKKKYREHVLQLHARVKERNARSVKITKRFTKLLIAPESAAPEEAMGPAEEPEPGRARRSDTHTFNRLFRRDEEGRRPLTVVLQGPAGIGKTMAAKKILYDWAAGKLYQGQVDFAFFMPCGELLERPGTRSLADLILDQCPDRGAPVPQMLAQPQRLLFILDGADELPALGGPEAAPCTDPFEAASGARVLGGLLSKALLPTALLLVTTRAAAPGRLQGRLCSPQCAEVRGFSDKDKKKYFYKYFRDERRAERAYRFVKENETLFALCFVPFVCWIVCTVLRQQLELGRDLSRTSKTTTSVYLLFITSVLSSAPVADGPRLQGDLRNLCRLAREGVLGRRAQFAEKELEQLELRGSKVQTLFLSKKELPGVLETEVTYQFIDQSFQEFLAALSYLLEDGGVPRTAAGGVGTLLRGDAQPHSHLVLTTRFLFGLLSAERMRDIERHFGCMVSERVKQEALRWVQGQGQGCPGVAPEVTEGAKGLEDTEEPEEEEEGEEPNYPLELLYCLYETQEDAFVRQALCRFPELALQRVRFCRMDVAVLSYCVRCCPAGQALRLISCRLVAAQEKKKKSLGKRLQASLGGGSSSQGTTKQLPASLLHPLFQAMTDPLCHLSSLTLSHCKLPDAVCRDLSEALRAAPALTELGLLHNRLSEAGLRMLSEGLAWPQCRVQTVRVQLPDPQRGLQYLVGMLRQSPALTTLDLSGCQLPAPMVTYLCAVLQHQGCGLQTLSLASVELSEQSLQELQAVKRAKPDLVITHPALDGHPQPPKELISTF
Procedure: DNA encoding full-length NLRP6 was codon optimized and chemically synthesized by Genewiz (Soochow, China). The DNA sequence was subcloned into NdeI-XhoI sites of a pDB-His-MBP vector (kindly given by Pro. Chenggui Han, China Agricultural University, Beijing, China). Recombinant NLRP6 protein was expressed and purified following previous reports, with slight modifications. Briefly, the protein was expressed in E. coli (DE3) at 16 °C with 0.5 mM IPTG induction overnight. Then, the protein was purified by Ni affinity and gel filtration chromatography. The p85α WT and p85α mutant sequences were chemically synthesized and subcloned into BamHI-XhoI sites of a pGEX-6P-1 plasmid by GenScript (Nanjing, China). The E. coli (DE3) transformed with the plasmids were grown in LB medium at 37 °C. The culture medium was supplemented with 0.5 mM IPTG followed by incubation at 16 °C for 16–18 h. […] The protein extinction coefficient was calculated by ProtParam, and the protein concentration was determined by the ultraviolet spectrophotometry method.
Eleven α-helical peptides were synthesized (Supplementary Data 7). […] The interaction between the peptides and NLRP6 was determined by BLI using an Octet Red 96 instrument (FortéBio, CA, USA). […] Responses (nanometre shift) were calculated using data that were double reference subtracted using reference wells and nonspecific binding of the biosensor to the analyte. […]

LN18 cells = experiment: Cell proliferation / viability assay, LN18; format: cell-based, Human; details: Supplementary Figure 8c
Procedure: as §1, §2

Sequence: SAEGYQYRALYD [Pep1, peptide found on the p85α SH3 domain; selected as the control named PepC]
- Relative cell viability (HS683 cells; 5 μM, replicate 1): 0.98
- Relative cell viability (HS683 cells; 5 μM, replicate 2): 0.96
- Relative cell viability (HS683 cells; 5 μM, replicate 3): 0.94
- Relative cell viability (HS683 cells; 10 μM, replicate 1): 0.96
- Relative cell viability (HS683 cells; 10 μM, replicate 2): 0.95
- Relative cell viability (HS683 cells; 10 μM, replicate 3): 0.91
- Relative cell viability (HS683 cells; 20 μM, replicate 1): 0.94
- Relative cell viability (HS683 cells; 20 μM, replicate 2): 0.90
- Relative cell viability (HS683 cells; 20 μM, replicate 3): 0.89
- Relative cell viability (HS683 cells; 30 μM, replicate 1): 0.92
- Relative cell viability (HS683 cells; 30 μM, replicate 2): 0.88
- Relative cell viability (HS683 cells; 30 μM, replicate 3): 0.85
- binding to NLRP6 (in words) (recombinant NLRP6): did not interact with NLRP6
- Relative cell viability (LN18 cells; 5 μM, replicate 1): 0.95
- Relative cell viability (LN18 cells; 5 μM, replicate 2): 0.92
- Relative cell viability (LN18 cells; 5 μM, replicate 3): 0.93
- Relative cell viability (LN18 cells; 10 μM, replicate 1): 0.92
- Relative cell viability (LN18 cells; 10 μM, replicate 2): 0.95
- Relative cell viability (LN18 cells; 10 μM, replicate 3): 0.90
- Relative cell viability (LN18 cells; 20 μM, replicate 1): 0.95
- Relative cell viability (LN18 cells; 20 μM, replicate 2): 0.92
- Relative cell viability (LN18 cells; 20 μM, replicate 3): 0.90
- Relative cell viability (LN18 cells; 30 μM, replicate 1): 0.92
- Relative cell viability (LN18 cells; 30 μM, replicate 2): 0.88
- Relative cell viability (LN18 cells; 30 μM, replicate 3): 0.94
